The values below come from patent publication US11160767B2, “4,4′-trans-dihydroxystilbene for use in treating cancer” (The George Washington University, a Congressionally …, priority 2017, dated 2021).

The subject of test [1] is HCT116 cells. Nature of the test: Comet assay. It is filed as cell-based, human. The conditions noted are these: 2.5 μM for 24 hours. Here is the method:
Comet assay. HCT116 cells were treated with DHS for 0.5 or 24 hours. Afterward, the cells were irradiated with X-rays at a dose of 20 Gy. An aliquot of 80 μL cell suspension were mixed with 400 μL 1.2% low melting point agarose and plated on Fisherfinest microscope slide (Thermo Scientific, Pittsburgh, Pa., US), which had already been layered with 120 μL 1% agarose gel. Cells were then lysed and DNA was electrophoretically separated. The gels were neutralized before staining with 60 μL of 5 μM SYBR green. The shape of the stained DNA mass in at least 50 cells in each sample was analyzed with OpenComet software (MA, US).
(§1) To investigate whether inhibition of DNA replication by DHS can trigger DNA damage, the DNA damage markers phosphor-Chk1 (pChk1, Serine 345) and phosphor-Chk2 (pChk2, Threonine 68) were analyzed in DHS-treated HCT116 cells. […] A comet assay was next used to test if DNA double strand breaks are induced by DHS.

The test system of test [2] is HCT116. Nature of the test: In vitro cytotoxicity (SRB assay), HCT116. It is filed as cell-based. The settings on record: Homo sapiens, HCT-116, 72 hours. Here is the method: (§2) Cell lines and cell culture. HCT116, U205, PANC-1, MDA-231 cell lines were purchased from the American Type Culture Collection (Rockville, Md., US). Cells were cultured in the DMEM medium (Lonza, Basel, Switzerland) containing 10% fetal bovine serum (Gibco, Grand Island, N.Y., US), 100 Units/ml penicillin, 100 Units/mL streptomycin, […] L-glutamine (Gibco, Grand Island, N.Y., US) at 37° C. in a humidified atmosphere with 5% CO2.
(§3) In vitro cytotoxicity assays. […] SRB assay (Vichai and Kirtikara, 2006) was performed and the absorbance at 510 nm was read with a plate reader. The proliferation rate was calculated according to the Manufacturer's instruction. The IC50 value for each compound was determined from dose-effect relationship using the CompuSyn software (version 1.0.1; CompuSyn, Inc, Paramus, N.J.) (Chou, 2006). Cell proliferating doubling time was monitored over a period of 72 hours.

For test [3], the system named is HCT116 xenograft tumor. Nature of the test: HCT116 xenograft tumor model. The settings on record: Day 38; DHS 50 mg/kg i.p. 14 consecutive days; cisplatin 8 mg/kg i.p. In kind it is in vivo, nude mice.
Description: Xenograft mouse models. […] In xenograft studies, HCT116 (3×10^6 cells) and IGROV3/CP2 (5×10^6 cells) suspended in 100 μl of phosphate buffered saline (PBS, pH 7.4) were injected subcutaneously into the lower flank of the mice. Testing compounds were dissolved in DMSO/Tween 80/saline (10:10:80; v/v/v) buffer and were used to treat animals through intraperitoneal (i.p.) injection. […] The body weight of animals was measured throughout the study. Tumor diameters were measured with digital calipers, and the tumor volume in mm^3 was calculated by the formula: Volume=(width)^2×length/2.
HCT116 cells (5×10^6) were injected subcutaneously in nude mice and grown to approximately 100 mm^3 in volume. […] To study the preclinical toxicity of DHS, samples of hearts, livers, spleens, lung, and kidneys were collected on Day 38 and sections were stained for histological examination.
In test [4] the test system is plasmid DNA. Nature of the test: Incubation with plasmid DNA, UV absorption. In kind it is binding. From the text:
In addition, resveratrol has been previously reported to interact with DNA grooves (Usha et al., 2006). […] A similar result with And-1, RRM1, and RRM2 was also observed in DHS resistant HCT116 cells (data not shown).

In test [5] the target is T1, RRM1 and RRM2 proteins (Homo sapiens, UniProt P31350).
T1 construct: endogenous in cells; host or cells: HCT116
Nature of the test: RRM1 and RRM2 protein levels by Western blot. It is filed as cell-based. The settings on record: HCT116 cells. Here is the method: (§4) Western blot analysis. Compound-treated cells were harvested and lysed. Protein extracts were subjected to electrophoresis in a SDS-polyacrylamide gel. The resolved proteins were transferred onto polyvinylidene difluoride membranes (Amersham Biosciences, Piscataway, N.J., US). After the blocking step, membranes were incubated with primary IgG antibodies, washed, and then incubated with horseradish peroxidase-conjugated anti-rabbit IgG or anti-mouse IgG secondary antibodies. Western blot signals were visualized by chemiluminescence using SuperSignal West Pico chemiluminescence reagent (Pierce, Rockford, Ill., US).
The effect of DHS treatment on And-1, RRM1, and RRM2 expression was investigated.

The subject of test [6] is HCT116 cells, U2OS cells, MDA-231/GFP cells, and PANC-1 cells. Nature of the test: Cytotoxicity across the four cancer cell lines (SAR summary). In kind it is cell-based. Here is the method:
In vitro cytotoxicity assays. Cells growing in the Log phase were treated with various compounds at different concentrations (generally 0.137 to 100 μM) for 72 hours at 37° C. SRB assay (Vichai and Kirtikara, 2006) was performed and the absorbance at 510 nm was read with a plate reader. The proliferation rate was calculated according to the Manufacturer's instruction. The IC50 value for each compound was determined from dose-effect relationship using the CompuSyn software (version 1.0.1; CompuSyn, Inc, Paramus, N.J.) (Chou, 2006). Cell proliferating doubling time was monitored over a period of 72 hours.
Based on identification of resveratrol as a lead compound in the drug screening assays, the anti-cancer activity of synthetic resveratrol analogs (FIG. 2) was next investigated and compared to resveratrol using HCT116 cells, U2OS cells, MDA-231/GFP cells, and PANC-1 cells.
The structure activity relationship (SAR) of the derivatives of resveratrol were considered.

In test [7] the target is purified RRM2 protein (Homo sapiens, UniProt P31350). Nature of the test: In vitro thermal shift assay with purified protein. In kind it is binding. The conditions noted are these: purified RRM1 and RRM2 mixed, incubated 4 hours. Here is the method: To investigate binding of DHS to RRM1 and RRM2, a thermal shift assay was performed in HCT116 cells treated with DMSO (vehicle), resveratrol, DHS, gemcitabine, or hydroxyurea (Hu). Gemcitabine is known to bind RRM1 (Plunkett et al., 1995 and Chen et al., 2011), and Hu has been reported to bind RRM2 (Thelander et al., 1985). […] DHS stabilized RRM2 protein in a dose responsive manner (5 to 20 μM DHS; FIG. 11A). To rule out nonspecific effects of DHS on RRM2, an in vitro thermal shift assay was conducted. Purified RRM1 and RRM2 were mixed and then incubated with DHS or Hu for 4 hours before performing the assay.

Test [8] relates to SKOV3-CP7. In words: DHS and cisplatin, SKOV3-CP7 cells. In kind it is cell-based, human. From the text: The effect of DHS on a human SKOV3 ovarian cell line and its cisplatin-resistant subline, SKOV3/CP7, was investigated.
Test [9] concerns phosphor-Chk1 (pChk1, Serine 345). In words: DNA damage markers by Western blot. It is filed as cell-based, human. The settings on record: HCT116 cells, 10 μM for 20 minutes. Here is the method:
as §4, §1

The test system of test [10] is MDA-231/GFP. Nature of the test: In vitro cytotoxicity (SRB assay), MDA-231/GFP. It is filed as cell-based. The conditions noted are these: Homo sapiens, MDA-MB-231, 72 hours. Here is the method:
as §2, §3

In test [11] the test system is KB, KB-Gem and KB-Hu. In words: Cell survival of KB and resistant sublines. In kind it is cell-based. Here is the method: An oral cancer cell line, KB, and its gemcitabine-resistant and hydroxyurea resistant sublines, KB-Gem and KB-Hu, respectively, were treated with gemcitabine (FIG. 15A), hydroxyurea (FIG. 15B), or DHS (FIG. 15C).
Next, the effect of combined treatment with DHS and Gemcitabine or Hydroxyurea was investigated.

Chain of purified RRM2 protein (P31350 whole entry, species assumed): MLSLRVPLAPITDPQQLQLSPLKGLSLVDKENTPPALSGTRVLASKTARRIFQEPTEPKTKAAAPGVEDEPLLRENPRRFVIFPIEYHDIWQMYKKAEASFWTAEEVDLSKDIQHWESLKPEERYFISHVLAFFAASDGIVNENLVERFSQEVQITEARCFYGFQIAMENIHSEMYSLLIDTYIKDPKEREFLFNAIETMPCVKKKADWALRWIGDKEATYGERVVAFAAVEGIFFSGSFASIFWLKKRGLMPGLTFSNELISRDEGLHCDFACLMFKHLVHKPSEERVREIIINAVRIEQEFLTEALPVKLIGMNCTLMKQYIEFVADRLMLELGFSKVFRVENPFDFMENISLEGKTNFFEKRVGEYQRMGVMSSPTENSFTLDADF
T1 sequence (P31350 whole entry): as the sequence (P31350 whole entry, species assumed) above

In the case of `Oc1ccc(/C=C/c2ccc(O)cc2)cc1` [DHS, 4,4′-trans-dihydroxystilbene], the “DNA double strand breaks (lengths of tail moments)” value in [1] is reported as “caused significant DNA double strand breaks”. Moreover, the IC50 in test [2] was 2.3 ± 0.78 µM; in test [6] (range over four cell lines), 2.3 to 22 µM; in test [10] it was 5.32 ± 3.38 µM. In test [3], the “Reduction in tumor volume as compared with the vehicle control group” value was approximately 50%. Besides, in test [4], the “UV absorption on incubation with plasmid DNA (DNA binding)” value is given as “increased UV absorption”. Further, the “RRM1 and RRM2 protein levels” value in [5] is “caused down-regulation of RRM1 and RRM2 proteins”. Besides, the “Potency relative to resveratrol according to the IC50 values” in [6] was 10 times. Further, in [7], the “Stabilisation of purified RRM2 after high temperature incubation” value is given as “stabilized purified RRM2 protein”. Further, in [8], the Re-sensitisation to cisplatin result is reported as “re-sensitized the SKOV3/CP7 cells to cisplatin”. The “Sensitivity to DHS alone” value in test [8] was “sensitive to DHS treatment alone”. For the same compound, in [9], the “DNA damage (phosphorylated CHK1, pSerine 345)” value was “more potent than resveratrol and the other analogs”. Besides, the “Cell survival of resistant sublines” value in test [11] (KB, KB-Gem, KB-Hu, DHS alone) was “overcame gemcitabine and hydroxyurea resistance”. Also, in [11] (KB-Gem and KB-Hu, 10 μM DHS), the “Resensitisation to gemcitabine and hydroxyurea” value was “resensitized cultured KB-gem and KB-Hu cell lines to gemcitabine and hydroxyurea”.
